The record followed here is patent publication US9012152B2, “Anti-bacterial peptides and methods of treating diseases using same” (Yissum Research Development Company of the Hebrew …, priority 2007, dated 2015).

For one assay, the system named is E. Coli MC41relA^+. Briefly: EDF activity of modified derivatives (size and external Asn residues). The format is cell-based. The settings on record: various concentrations added to diluted cultures; incubated with rifampicin. The protocol:
The […] peptides analyzed include NNWNN (SEQ ID NO: 1); GNWNN (SEQ ID NO: 2); NGWNN (SEQ ID NO: 3); NNGNN (SEQ ID NO: 4); NNWGN (SEQ ID NO: 5); and NNWNG (SEQ ID NO: 6). […] Chemically synthesized EDF (SEQ ID NO: 1) or its modified derivatives were added at various concentrations to diluted cultures of E. Coli MC41relA^+. No EDF was added to a control culture. […] Samples were incubated with rifampicin as described in Example 1.
E. coli mazEF-mediated cell death in the presence of synthesized wild type (WT) and mutated EDF. E. coli MC4100relA^+t(WT) and MC4100relA^+ΔmazEF (ΔmazEF) were grown for 12 hours in M9 medium with shaking (160 rpm). Then, cells were diluted 1:100 in M9 medium and were grown with shaking (160 rpm) at 37° C. to a mid-logarithmic phase (OD600=0.6). […] The samples were incubated for 10 minutes at 37° C. without shaking. Then rifampicin (10 μg/ml) was added and the cells were incubated for 10 minutes without shaking. The cells were centrifuged in 14000 rpm for 5 minutes and washed in pre-heated saline. Then, the cells were diluted, plated on LB plates and incubated at 37° C. for 12 hours. Cell killing was calculated by comparing the number of the colony-forming ability of cells treated by stressful conditions to those of the cells that were not exposed to the treatment.
With “NNWNQ: EDF pentapeptide with Asn replaced by Gln at the last position (Chemically synthesized modified EDF derivative)”, the EDF activity entry is given as “only a partial reduction in EDF activity”. Still for that read-out and setting: then “NNNWNNN (Chemically synthesized modified EDF derivative) [heptapeptide derivative of EDF]”, with “partial activity”; and “QNWNN: EDF pentapeptide with Asn replaced by Gln at the first position (Chemically synthesized modified EDF derivative)”, with “only a partial reduction in EDF activity”.

The test system of another assay is E. coli MC4100relA^+. Briefly: E. coli mazEF-mediated cell death in the presence of synthesized wild type and mutated EDF. The format is cell-based. The settings on record: 1 μg/ml of peptide; rifampicin 10 μg/ml, 10 minutes; diluted culture 3×10^4. Here is the method:
E. coli mazEF-mediated cell death in the presence of synthesized wild type (WT) and mutated EDF. E. coli MC4100relA^+t(WT) and MC4100relA^+ΔmazEF (ΔmazEF) were grown for 12 hours in M9 medium with shaking (160 rpm). Then, cells were diluted 1:100 in M9 medium and were grown with shaking (160 rpm) at 37° C. to a mid-logarithmic phase (OD600=0.6). Duplicate samples were removed from the cultures at a density of 2.5×10^8 (Dense), diluted in pre-heated M9 medium to the density of 3×10^4 (M9) or diluted in pre-heated M9 applied with 1 μg/ml of one of the synthesized EDFs (SEQ ID NOs: 1-6). The samples were incubated for 10 minutes at 37° C. without shaking. Then rifampicin (10 μg/ml) was added and the cells were incubated for 10 minutes without shaking. The cells were centrifuged in 14000 rpm for 5 minutes and washed in pre-heated saline. Then, the cells were diluted, plated on LB plates and incubated at 37° C. for 12 hours. Cell killing was calculated by comparing the number of the colony-forming ability of cells treated by stressful conditions to those of the cells that were not exposed to the treatment.
Consider “NNWGN: Mutated EDF pentapeptide, glycine in position 4 (Chemically synthesized mutant EDF derivative)”, for which the “% Cell killing following mazEF induction with rifampicin” value is listed as 72%. For the substance “GNWNN: Mutated EDF pentapeptide, glycine in position 1 (Chemically synthesized mutant EDF derivative)”, the “% Cell killing following mazEF induction with rifampicin” value is on record as 9%. The same measure, in the same setting: then “NGWNN: Mutated EDF pentapeptide, glycine in position 2 (Chemically synthesized mutant EDF derivative)”, with 51%. On the same count and under the same terms, then “NNWNG: Mutated EDF pentapeptide, glycine in position 5 (Chemically synthesized modified EDF derivative)”, with 19%; and “NNGNN: Mutated EDF pentapeptide, glycine in position 3 (Chemically synthesized mutant EDF derivative)”, with 41%.

A further assay has as its system E. Coli NC4100relA^+. The assay can be described thus: Ability of mutant EDF molecules to inhibit wild type EDF activity. The note with it: constant amount (50 ng/ml) of mutated EDF, various concentrations of WT EDF. It is filed as cell-based. Here is the method: FIG. 15 is a graph illustrating the ability of mutant EDF molecules to inhibit wild type EDF activity. The […] peptides analyzed include NNWNN (SEQ ID NO: 1); GNWNN (SEQ ID NO: 2); NGWNN (SEQ ID NO: 3); NNGNN (SEQ ID NO: 4); NNWGN (SEQ ID NO: 5); and NNWNG (SEQ ID NO: 6).
Ability of mutant EDF molecules to inhibit wild type EDF activity: Various concentration of chemically synthesized WT EDF (SEQ ID NO: 1) were added to diluted cultures of E. Coli NC4100relA^+ containing a constant amount (50 ng/ml) of each of the mutated EDF described in Table 6. The Experiment was carried out as described herein above.
Regarding “GNWNN: Mutated EDF pentapeptide, glycine in position 1 (Chemically synthesized mutant EDF derivative)”, the “inhibition of wild type EDF activity” value is on record as “capable of antagonizing”. On the same count and under the same terms, then “NNWNG: Mutated EDF pentapeptide, glycine in position 5 (Chemically synthesized modified EDF derivative)”, with “capable of antagonizing”.
